Laboratory results from PMC8800111 (The Journal of Biological Chemistry, 2021).

Tests used:
Format in all cases: cell-based
[1] = molecular target: proteins of U3A human fibrosarcoma cells (4462 proteins detected) (Homo sapiens, UniProt Q16610); conditions: protein ECM1; U3A, 10 μM, 2 h
[2] = molecular target: proteins of U3A human fibrosarcoma cells (4462 proteins detected) (Homo sapiens, UniProt Q9P032); conditions: protein NDUFAF4; U3A cells
[3] = molecular target: proteins of U3A human fibrosarcoma cells (4462 proteins detected) (Homo sapiens, UniProt Q9C0C9); conditions: protein UBE2O; soluble abundance after heat, U3A cells
[4] = molecular target: proteins of U3A human fibrosarcoma cells (4462 proteins detected) (Homo sapiens, UniProt Q92688); conditions: protein ANP32B, U3A cells
[5] = molecular target: proteins of U3A human fibrosarcoma cells (4462 proteins detected) (Homo sapiens, UniProt Q8N6T3); conditions: protein ARFGAP1; U3A, 10 μM, 2 h
[6] = molecular target: proteins of U3A human fibrosarcoma cells (4462 proteins detected) (Homo sapiens, UniProt P57768); conditions: protein SNX16; U3A, 10 μM, 2 h
[7] = molecular target: proteins of U3A human fibrosarcoma cells (4462 proteins detected) (Homo sapiens, UniProt P34896); conditions: protein SHMT1, U3A cells
[8] = molecular target: proteins of U3A human fibrosarcoma cells (4462 proteins detected) (Homo sapiens, UniProt Q9H4A3); conditions: protein WNK1, U3A cells
[9] = molecular target: proteins of U3A human fibrosarcoma cells (4462 proteins detected) (Homo sapiens, UniProt Q9HCN4); conditions: protein GPN1; soluble abundance after heat, U3A cells
[10] = molecular target: proteins of U3A human fibrosarcoma cells (4462 proteins detected) (Homo sapiens, UniProt Q9H1B7); conditions: protein IRF2BPL; soluble abundance after heat, U3A cells
[11] = molecular target: proteins of U3A human fibrosarcoma cells (4462 proteins detected) (Homo sapiens, UniProt Q13627); conditions: protein DYRK1A, U3A cells
[12] = molecular target: proteins of U3A human fibrosarcoma cells (4462 proteins detected) (Homo sapiens, UniProt Q15599); conditions: protein SLC9A3R2, U3A cells
[13] = molecular target: proteins of U3A human fibrosarcoma cells (4462 proteins detected) (Homo sapiens, UniProt Q92575); conditions: protein UBXN4; U3A cells
[14] = molecular target: proteins of U3A human fibrosarcoma cells (4462 proteins detected) (Homo sapiens, UniProt Q9BXS5); conditions: protein AP1M1; U3A cells
[15] = molecular target: proteins of U3A human fibrosarcoma cells (4462 proteins detected) (Homo sapiens, UniProt Q9H6T3); conditions: protein RPAP3; soluble abundance after heat, U3A cells
[16] = molecular target: proteins of U3A human fibrosarcoma cells (4462 proteins detected) (Homo sapiens, UniProt P49916); conditions: protein LIG3; U3A cells
[17] = molecular target: proteins of U3A human fibrosarcoma cells (4462 proteins detected) (Homo sapiens, UniProt P17706); conditions: protein PTPN2, U3A cells
[18] = molecular target: proteins of U3A human fibrosarcoma cells (4462 proteins detected) (Homo sapiens, UniProt P50990); conditions: protein CCT8; U3A cells
[19] = molecular target: proteins of U3A human fibrosarcoma cells (4462 proteins detected) (Homo sapiens, UniProt Q16666); conditions: protein IFI16; soluble abundance after heat, U3A cells
[20] = molecular target: proteins of U3A human fibrosarcoma cells (4462 proteins detected) (Homo sapiens, UniProt P42766); conditions: protein RPL35; U3A cells
[21] = molecular target: proteins of U3A human fibrosarcoma cells (4462 proteins detected) (Homo sapiens, UniProt Q01826); conditions: protein SATB1; U3A cells
[22] = molecular target: proteins of U3A human fibrosarcoma cells (4462 proteins detected) (Homo sapiens, UniProt Q9UBV8); conditions: protein PEF1; U3A, 10 μM, 2 h
[23] = molecular target: proteins of U3A human fibrosarcoma cells (4462 proteins detected) (Homo sapiens, UniProt Q8NDC0); conditions: protein MAPK1IP1L; U3A cells
[24] = molecular target: proteins of U3A human fibrosarcoma cells (4462 proteins detected) (Homo sapiens, UniProt O75459); conditions: protein PAGE1, U3A cells
[25] = molecular target: proteins of U3A human fibrosarcoma cells (4462 proteins detected) (Homo sapiens, UniProt Q15365); conditions: protein PCBP1; U3A cells
[26] = molecular target: proteins of U3A human fibrosarcoma cells (4462 proteins detected) (Homo sapiens, UniProt Q9NVZ3); conditions: protein NECAP2; U3A cells
[27] = molecular target: proteins of U3A human fibrosarcoma cells (4462 proteins detected) (Homo sapiens, UniProt O95456); conditions: protein PSMG1, U3A cells
[28] = molecular target: proteins of U3A human fibrosarcoma cells (4462 proteins detected) (Homo sapiens, UniProt P26038); conditions: protein MSN, U3A cells
[29] = molecular target: proteins of U3A human fibrosarcoma cells (4462 proteins detected) (Homo sapiens, UniProt P04183); conditions: protein TK1; U3A cells
[30] = molecular target: proteins of U3A human fibrosarcoma cells (4462 proteins detected) (Homo sapiens, UniProt O60885); conditions: protein BRD4; soluble abundance after heat, U3A cells

proteins of U3A human fibrosarcoma cells (4462 proteins detected) (Homo sapiens, UniProt P49916), sequence (P49916 43-1009): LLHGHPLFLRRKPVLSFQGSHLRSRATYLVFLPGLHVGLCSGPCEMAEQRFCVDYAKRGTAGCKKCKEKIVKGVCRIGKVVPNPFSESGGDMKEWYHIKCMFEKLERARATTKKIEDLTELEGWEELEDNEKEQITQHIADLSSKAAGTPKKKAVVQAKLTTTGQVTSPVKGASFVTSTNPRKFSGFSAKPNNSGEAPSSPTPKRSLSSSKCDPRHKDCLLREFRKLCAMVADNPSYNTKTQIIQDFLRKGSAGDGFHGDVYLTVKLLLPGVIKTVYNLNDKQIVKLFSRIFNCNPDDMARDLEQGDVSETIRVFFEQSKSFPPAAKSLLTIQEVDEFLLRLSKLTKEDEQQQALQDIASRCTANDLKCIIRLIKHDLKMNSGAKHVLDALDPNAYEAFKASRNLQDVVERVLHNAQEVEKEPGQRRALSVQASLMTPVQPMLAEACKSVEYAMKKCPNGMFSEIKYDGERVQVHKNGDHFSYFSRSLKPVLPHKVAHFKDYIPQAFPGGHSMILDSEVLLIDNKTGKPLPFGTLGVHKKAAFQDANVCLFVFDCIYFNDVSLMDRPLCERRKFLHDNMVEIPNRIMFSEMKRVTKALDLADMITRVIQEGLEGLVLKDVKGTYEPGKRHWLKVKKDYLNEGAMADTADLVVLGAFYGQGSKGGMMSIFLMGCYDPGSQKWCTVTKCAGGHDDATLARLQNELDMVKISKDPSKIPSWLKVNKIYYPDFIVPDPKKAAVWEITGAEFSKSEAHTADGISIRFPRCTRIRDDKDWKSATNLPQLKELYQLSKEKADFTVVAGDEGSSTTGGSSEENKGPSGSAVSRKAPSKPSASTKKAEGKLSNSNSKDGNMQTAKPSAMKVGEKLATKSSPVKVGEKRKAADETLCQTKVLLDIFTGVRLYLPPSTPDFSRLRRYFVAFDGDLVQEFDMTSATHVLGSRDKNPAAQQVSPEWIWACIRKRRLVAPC
proteins of U3A human fibrosarcoma cells (4462 proteins detected) (Homo sapiens, UniProt Q9P032), sequence (Q9P032 whole entry): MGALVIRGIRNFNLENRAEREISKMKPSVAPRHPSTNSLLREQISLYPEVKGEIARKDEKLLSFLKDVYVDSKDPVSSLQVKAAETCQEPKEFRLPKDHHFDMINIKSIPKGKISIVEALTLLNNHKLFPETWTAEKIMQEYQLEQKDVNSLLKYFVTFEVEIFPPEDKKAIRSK
proteins of U3A human fibrosarcoma cells (4462 proteins detected) (Homo sapiens, UniProt Q15365), sequence (Q15365 whole entry): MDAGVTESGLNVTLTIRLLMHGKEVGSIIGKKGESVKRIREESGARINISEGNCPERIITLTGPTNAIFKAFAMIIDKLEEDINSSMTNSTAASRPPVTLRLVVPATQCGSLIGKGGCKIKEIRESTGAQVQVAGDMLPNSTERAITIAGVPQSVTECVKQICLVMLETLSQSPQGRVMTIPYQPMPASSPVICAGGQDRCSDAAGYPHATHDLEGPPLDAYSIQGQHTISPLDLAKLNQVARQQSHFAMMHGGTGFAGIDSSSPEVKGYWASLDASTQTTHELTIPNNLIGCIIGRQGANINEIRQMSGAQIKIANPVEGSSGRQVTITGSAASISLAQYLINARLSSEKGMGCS
proteins of U3A human fibrosarcoma cells (4462 proteins detected) (Homo sapiens, UniProt Q16666), sequence (Q16666 whole entry): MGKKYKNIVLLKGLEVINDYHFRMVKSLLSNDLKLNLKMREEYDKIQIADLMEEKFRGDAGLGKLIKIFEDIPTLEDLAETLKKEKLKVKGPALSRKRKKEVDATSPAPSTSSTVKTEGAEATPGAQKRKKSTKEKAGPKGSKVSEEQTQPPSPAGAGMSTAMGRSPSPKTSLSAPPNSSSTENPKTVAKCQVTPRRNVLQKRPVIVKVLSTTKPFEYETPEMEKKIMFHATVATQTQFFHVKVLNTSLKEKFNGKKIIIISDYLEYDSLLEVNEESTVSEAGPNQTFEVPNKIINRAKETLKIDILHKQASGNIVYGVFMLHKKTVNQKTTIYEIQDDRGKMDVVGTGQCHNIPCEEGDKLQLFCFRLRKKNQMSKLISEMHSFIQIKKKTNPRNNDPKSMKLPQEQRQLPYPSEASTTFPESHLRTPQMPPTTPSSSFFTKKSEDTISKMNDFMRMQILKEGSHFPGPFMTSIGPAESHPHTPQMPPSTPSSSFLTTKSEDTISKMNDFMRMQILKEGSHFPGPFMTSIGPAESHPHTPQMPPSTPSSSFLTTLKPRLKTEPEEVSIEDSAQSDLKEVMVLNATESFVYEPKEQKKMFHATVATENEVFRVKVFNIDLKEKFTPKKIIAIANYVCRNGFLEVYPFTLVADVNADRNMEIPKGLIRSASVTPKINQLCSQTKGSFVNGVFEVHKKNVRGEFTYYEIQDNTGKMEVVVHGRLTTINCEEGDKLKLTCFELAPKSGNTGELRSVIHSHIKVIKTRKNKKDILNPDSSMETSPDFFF
proteins of U3A human fibrosarcoma cells (4462 proteins detected) (Homo sapiens, UniProt P50990), sequence (P50990 whole entry): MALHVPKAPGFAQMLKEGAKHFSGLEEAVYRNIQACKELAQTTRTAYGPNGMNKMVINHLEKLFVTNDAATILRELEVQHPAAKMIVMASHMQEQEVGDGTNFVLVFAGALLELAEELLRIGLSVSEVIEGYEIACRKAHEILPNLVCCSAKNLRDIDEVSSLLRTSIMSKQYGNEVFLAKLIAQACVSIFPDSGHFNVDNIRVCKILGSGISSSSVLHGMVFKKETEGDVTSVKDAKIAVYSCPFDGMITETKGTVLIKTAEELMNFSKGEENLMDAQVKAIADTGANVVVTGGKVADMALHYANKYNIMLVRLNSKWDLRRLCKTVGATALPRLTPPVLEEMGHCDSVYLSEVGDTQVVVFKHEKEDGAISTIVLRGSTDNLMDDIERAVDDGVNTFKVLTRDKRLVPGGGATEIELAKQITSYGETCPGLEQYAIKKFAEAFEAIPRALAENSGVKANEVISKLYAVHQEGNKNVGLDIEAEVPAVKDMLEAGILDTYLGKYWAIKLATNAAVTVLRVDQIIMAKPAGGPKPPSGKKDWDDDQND
proteins of U3A human fibrosarcoma cells (4462 proteins detected) (Homo sapiens, UniProt O95456), sequence (O95456 whole entry): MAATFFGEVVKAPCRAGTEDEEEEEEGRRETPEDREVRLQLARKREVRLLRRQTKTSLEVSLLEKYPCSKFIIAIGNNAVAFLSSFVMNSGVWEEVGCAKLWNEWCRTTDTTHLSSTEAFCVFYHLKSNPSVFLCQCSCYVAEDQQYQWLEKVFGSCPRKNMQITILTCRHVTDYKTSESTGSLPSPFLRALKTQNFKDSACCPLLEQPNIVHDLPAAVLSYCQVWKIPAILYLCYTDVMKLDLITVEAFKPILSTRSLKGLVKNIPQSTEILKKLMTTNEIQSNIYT
proteins of U3A human fibrosarcoma cells (4462 proteins detected) (Homo sapiens, UniProt Q01826), sequence (Q01826 whole entry): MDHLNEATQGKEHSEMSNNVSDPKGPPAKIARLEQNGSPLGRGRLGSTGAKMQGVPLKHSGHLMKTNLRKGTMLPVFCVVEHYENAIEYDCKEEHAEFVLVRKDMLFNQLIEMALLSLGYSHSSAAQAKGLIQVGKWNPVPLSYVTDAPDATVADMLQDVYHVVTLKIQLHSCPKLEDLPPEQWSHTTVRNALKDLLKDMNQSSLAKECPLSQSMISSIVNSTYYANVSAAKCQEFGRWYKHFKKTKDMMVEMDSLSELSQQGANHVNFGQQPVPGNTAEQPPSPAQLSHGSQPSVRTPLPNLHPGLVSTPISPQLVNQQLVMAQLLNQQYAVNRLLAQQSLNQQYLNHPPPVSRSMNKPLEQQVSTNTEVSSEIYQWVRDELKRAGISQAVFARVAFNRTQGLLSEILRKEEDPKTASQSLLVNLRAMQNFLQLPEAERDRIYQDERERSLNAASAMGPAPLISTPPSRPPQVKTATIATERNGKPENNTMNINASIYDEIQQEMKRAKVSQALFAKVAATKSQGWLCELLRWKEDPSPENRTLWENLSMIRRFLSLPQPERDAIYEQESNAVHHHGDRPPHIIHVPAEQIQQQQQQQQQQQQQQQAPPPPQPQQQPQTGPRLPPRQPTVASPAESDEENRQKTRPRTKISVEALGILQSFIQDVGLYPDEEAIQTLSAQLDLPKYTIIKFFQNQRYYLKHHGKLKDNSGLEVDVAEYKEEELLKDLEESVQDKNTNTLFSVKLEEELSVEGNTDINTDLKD
proteins of U3A human fibrosarcoma cells (4462 proteins detected) (Homo sapiens, UniProt Q9BXS5), sequence (Q9BXS5 whole entry): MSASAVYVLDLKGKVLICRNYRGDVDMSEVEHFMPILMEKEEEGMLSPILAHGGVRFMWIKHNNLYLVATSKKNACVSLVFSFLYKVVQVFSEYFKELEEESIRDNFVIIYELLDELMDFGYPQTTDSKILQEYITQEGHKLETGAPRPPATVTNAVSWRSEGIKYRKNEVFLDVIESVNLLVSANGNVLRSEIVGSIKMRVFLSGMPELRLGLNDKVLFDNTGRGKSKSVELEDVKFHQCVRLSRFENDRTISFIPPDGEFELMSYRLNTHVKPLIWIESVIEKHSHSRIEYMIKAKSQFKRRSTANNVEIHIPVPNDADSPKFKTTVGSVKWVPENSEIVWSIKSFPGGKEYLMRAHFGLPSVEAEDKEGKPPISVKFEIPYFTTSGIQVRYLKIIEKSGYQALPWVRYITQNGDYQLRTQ
proteins of U3A human fibrosarcoma cells (4462 proteins detected) (Homo sapiens, UniProt Q8NDC0), sequence (Q8NDC0 whole entry): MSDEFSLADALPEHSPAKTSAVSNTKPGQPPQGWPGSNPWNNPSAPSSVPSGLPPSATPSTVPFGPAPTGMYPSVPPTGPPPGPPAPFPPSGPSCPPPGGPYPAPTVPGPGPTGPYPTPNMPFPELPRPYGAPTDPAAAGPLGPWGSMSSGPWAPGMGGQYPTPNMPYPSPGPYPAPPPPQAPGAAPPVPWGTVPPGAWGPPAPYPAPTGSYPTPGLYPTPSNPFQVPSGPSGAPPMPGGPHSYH
proteins of U3A human fibrosarcoma cells (4462 proteins detected) (Homo sapiens, UniProt Q8N6T3), sequence (Q8N6T3 whole entry): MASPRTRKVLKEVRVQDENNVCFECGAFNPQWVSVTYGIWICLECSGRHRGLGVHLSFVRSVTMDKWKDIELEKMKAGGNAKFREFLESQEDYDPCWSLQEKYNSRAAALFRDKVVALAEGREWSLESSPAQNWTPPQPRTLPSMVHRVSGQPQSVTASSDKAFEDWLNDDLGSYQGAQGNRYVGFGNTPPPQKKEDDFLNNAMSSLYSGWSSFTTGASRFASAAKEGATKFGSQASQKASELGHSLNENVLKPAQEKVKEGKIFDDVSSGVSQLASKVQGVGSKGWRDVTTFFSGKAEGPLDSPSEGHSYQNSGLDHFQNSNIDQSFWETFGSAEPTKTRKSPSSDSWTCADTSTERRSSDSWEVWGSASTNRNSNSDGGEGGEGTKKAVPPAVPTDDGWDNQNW

Q: How did the “Log2 (PYR/DMSO), ECM1” value [1] turn out when `CCc1nc(N)nc(N)c1-c1ccc(Cl)cc1` [pyrimethamine] was run?
A: -0.14

Q: What about the “Log2 (PYR/DMSO)” value [2] of the same compound?
A: 0.17

Q: And the “Log2 (PYR/DMSO)” value [3]?
A: 0.14

Q: And the “Log2 (PYR/DMSO)” value [4]?
A: -0.03

Q: And the “Log2 (PYR/DMSO), ARFGAP1” value [5]?
A: -0.14

Q: And the “Log2 (PYR/DMSO), SNX16” value [6]?
A: -0.18

Q: And the “Log2 (PYR/DMSO)” value [7]?
A: -0.05

Q: What about the “Log2 (PYR/DMSO)” value [8] of the same compound?
A: -0.04

Q: And the “Log2 (PYR/DMSO)” value [9]?
A: 0.15

Q: And the “Log2 (PYR/DMSO)” value [10]?
A: 0.14

Q: And the “Log2 (PYR/DMSO)” value [11]?
A: -0.05

Q: What about the “Log2 (PYR/DMSO)” value [12] of the same compound?
A: -0.05

Q: What about the “Log2 (PYR/DMSO)” value [13] of the same compound?
A: 0.18

Q: And the “Log2 (PYR/DMSO)” value [14]?
A: 0.17

Q: What about the “Log2 (PYR/DMSO)” value [15] of the same compound?
A: 0.14

Q: What about the “Log2 (PYR/DMSO)” value [16] of the same compound?
A: 0.16

Q: What about the “Log2 (PYR/DMSO)” value [17] of the same compound?
A: -0.04

Q: What about the “Log2 (PYR/DMSO)” value [18] of the same compound?
A: 0.16

Q: And the “Log2 (PYR/DMSO)” value [19]?
A: 0.13

Q: And the “Log2 (PYR/DMSO)” value [20]?
A: 0.20

Q: What about the “Log2 (PYR/DMSO)” value [21] of the same compound?
A: 0.21

Q: And the “Log2 (PYR/DMSO), PEF1” value [22]?
A: 0.24

Q: And the “Log2 (PYR/DMSO)” value [23]?
A: 0.22

Q: And the “Log2 (PYR/DMSO)” value [24]?
A: -0.04

Q: And the “Log2 (PYR/DMSO)” value [25]?
A: 0.18

Q: What about the “Log2 (PYR/DMSO)” value [26] of the same compound?
A: 0.21

Q: What about the “Log2 (PYR/DMSO)” value [27] of the same compound?
A: -0.05

Q: And the “Log2 (PYR/DMSO)” value [28]?
A: -0.04

Q: And the “Log2 (PYR/DMSO)” value [29]?
A: 0.19

Q: And the “Log2 (PYR/DMSO)” value [30]?
A: 0.14
